# PubChem BioAssay (NCI)
#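 Growth conditions: 96-well plates. Treatment: test compound, 48 hours, 5 concentrations. Analysis: linear interpolation between bracketing concentrations; unreached endpoints set to highest concentration. GI50 marks 50% less growth. The concentration for full growth arrest is given as TGI.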
# What was measured:
# Assay in all cases: DTP human tumour cell line panel, 48 h
# [1] = system: A498 renal
# [2] = system: KM12 colon
# [3] = system: SR leukemia
# [4] = system: OVCAR-5 ovarian
# [5] = system: U251 CNS
# [6] = system: SK-OV-3 ovarian
# [7] = system: NCI-H226 lung
# [8] = system: CAKI-1 renal
# [9] = system: MDA-MB-231 breast
# [10] = system: MDA-MB-435
Structure (SMILES),TGI [1],TGI [2],TGI [3],TGI [4],TGI [5],TGI [6],TGI [7],TGI [8],GI50 [1],GI50 [9],TGI [9],GI50 [2],GI50 [4],GI50 [5],GI50 [6],GI50 [7],GI50 [8],GI50 [10],TGI [10],GI50 [3]
CCOC(=O)CC(=O)ON(C)C(C)=O,> 100 µM,> 100 µM,> 100 µM,> 100 µM,> 100 µM,> 100 µM,> 100 µM,> 100 µM,,,,,,,,,,,,
c1ccc(COc2cccc3ccc[n+](Cc4ccccc4)c23)cc1,97.8 µM,15.7 µM,,9.98 µM,> 100 µM,73.7 µM,25.5 µM,,,,,,,,,,,,,
C[C@@H]1CCC2[C@@H](C)[C@@H](OCC(CO[C@H]3OC4O[C@@]5(C)CC[C@H]6[C@H](C)CCC([C@H]3C)[C@@]46OO5)OC(=O)CCC(=O)O)OC3O[C@@]4(C)CC[C@@H]1[C@]32OO4 (some centres not stated),31.3 µM,,,14.7 µM,24.5 µM,> 100 µM,40 µM,0.477 µM,13.8 µM,0.0602 µM,7.95 µM,< 0.01 µM,< 0.01 µM,< 0.01 µM,27.2 µM,0.933 µM,0.022 µM,< 0.0115 µM,13 µM,
C=C1NC(=O)C(C(C)CC)NC(=O)C2CSCC(NC(=O)CCC(=O)O)C(=O)NC(Cc3ccccc3)C(=O)NC(C)C(=O)NC(CC(C)CC)C(=O)NC(C(=O)NC(Cc3ccccc3)C(=O)N3CCCC3C(=O)N2)C(C)OC(=O)C(CO)NC(=O)C(C(O)COC)N(C)C(=O)C(C(C)C)NC(=O)C(CC(C)CC)NC1=O (configuration not stated),0.512 µM,> 6 µM,> 6 µM,> 6 µM,> 6 µM,> 6 µM,> 6 µM,> 6 µM,0.00667 µM,0.0201 µM,3.24 µM,0.00529 µM,0.0327 µM,0.0101 µM,0.0243 µM,0.117 µM,0.0246 µM,,,0.0259 µM
CCN1c2ccccc2C(C(SC)S(=O)(=O)c2ccc(C)cc2)c2c1[nH]c(=O)n(C)c2=O (configuration not stated),> 100 µM,> 100 µM,,> 100 µM,> 100 µM,> 100 µM,> 100 µM,> 100 µM,,,,,,,,,,,,
CC(C)OP(=O)(OC(C)C)C(=NCCN=C(NNc1ccc([N+](=O)[O-])cc1)P(=O)(OC(C)C)OC(C)C)NNc1ccc([N+](=O)[O-])cc1,60.3 µM,> 100 µM,> 100 µM,> 100 µM,91.2 µM,,93.3 µM,25.4 µM,,,,,,,,,,,,
C[Si](C)(C)C1(Sc2ccccc2)SCCCS1,> 100 µM,> 100 µM,,> 100 µM,> 100 µM,> 100 µM,,> 100 µM,,,,,,,,,,,,
OCC#Cc1ccccc1C#Cc1ccccc1,,22.9 µM,,28.3 µM,25.2 µM,33.9 µM,29.4 µM,25.5 µM,,3.26 µM,16.4 µM,10.8 µM,14.4 µM,11.7 µM,16.6 µM,15 µM,12.2 µM,14.2 µM,28.1 µM,
COC(OC)C(C)CC(=O)N(C)C (configuration not stated),> 100 µM,> 100 µM,,> 100 µM,> 100 µM,> 100 µM,> 100 µM,,,,,,,,,,,,,
CN(C)c1nc(=Nc2ccc(N=c3nc(N(C)C)ss3)cc2)ss1,> 79.3 µM,> 100 µM,64.9 µM,> 100 µM,> 49.8 µM,> 100 µM,> 100 µM,> 59.5 µM,,,,,,,,,,,,
CC(C)(C)OC(=O)N[C@H]1CC2(C=C(Cl)C(=O)C(Cl)=C2)OC1=O,> 9.94 µM,32 µM,> 25 µM,38.6 µM,45.2 µM,> 46.4 µM,> 81.6 µM,26.5 µM,,,33.8 µM,,,,,,,,,
[Cl-].[La+3].[O-]/N=C(\c1ccccc1)c1ccccn1.[O-]/N=C(\c1ccccc1)c1ccccn1.[O-]/N=C(\c1ccccc1)c1ccccn1,> 100 µM,> 100 µM,> 100 µM,,> 100 µM,> 100 µM,51.2 µM,> 91.2 µM,77.6 µM,,,82 µM,,32 µM,50.8 µM,21.6 µM,48.4 µM,,,36.5 µM
COc1ccc(S(=O)(=O)NNS(C)(=O)=O)cc1,> 100 µM,> 100 µM,> 100 µM,,> 100 µM,,> 100 µM,> 100 µM,,,,,,,,,,,,
CCCCCCN(CCCCCC)C(=O)Cc1c2n(c3ccccc13)Cc1ccccc1-2,,> 100 µM,> 100 µM,,> 100 µM,> 100 µM,> 100 µM,> 100 µM,,,,,,,,,,,,
CC1(C)C2CCC(=O)C1CC2 (configuration not stated),> 100 µM,> 100 µM,,> 100 µM,> 100 µM,> 100 µM,> 100 µM,> 100 µM,,,> 100 µM,,,,,,,,> 100 µM,
ClCc1cccc(Cn2cnc3ncnc(Cl)c32)c1,35.9 µM,3.32 µM,,19.8 µM,3.95 µM,25.5 µM,8.67 µM,4.04 µM,18.4 µM,1.72 µM,3.4 µM,1.85 µM,6.74 µM,1.97 µM,10.8 µM,3.19 µM,2.12 µM,3.46 µM,12.9 µM,
O=C(/C=C\c1ccc(Cl)c(Cl)c1)c1ccc(Cl)cc1Cl,> 100 µM,25.2 µM,,,40.6 µM,51 µM,21.2 µM,> 100 µM,> 100 µM,,,,,,,6.39 µM,,,,7.87 µM
COc1cc(NCc2ccc3oc(=O)c(-c4ccccc4)nc3c2)cc(OC)c1OC,,> 10 µM,> 10 µM,> 10 µM,> 10 µM,> 10 µM,> 10 µM,> 10 µM,,,> 10 µM,,,,,,,,> 10 µM,
O=C(CSc1ccc(Cl)cc1)Nc1ccc(-c2nc3ccccc3s2)c(Cl)c1,6.34 µM,> 100 µM,,55.4 µM,18.7 µM,44.1 µM,64.1 µM,10.3 µM,1.98 µM,8.34 µM,23.6 µM,3.66 µM,11.6 µM,3.71 µM,13.7 µM,4.9 µM,2.53 µM,3.72 µM,35.4 µM,
Cc1c2c(nn1-c1ccc(S(=O)(=O)/N=C3\SCCC(=O)N3c3ccccc3)cc1)-c1ccccc1CC2,,> 100 µM,> 100 µM,> 100 µM,> 100 µM,> 100 µM,> 100 µM,> 100 µM,,35.1 µM,> 100 µM,> 100 µM,> 100 µM,> 100 µM,> 100 µM,84.4 µM,> 100 µM,> 100 µM,> 100 µM,65 µM

Structure (SMILES),TGI [1],TGI [2],TGI [3],TGI [4],TGI [5],TGI [6],TGI [7],TGI [8],GI50 [1],GI50 [9],TGI [9],GI50 [2],GI50 [4],GI50 [5],GI50 [6],GI50 [7],GI50 [8],GI50 [10],TGI [10],GI50 [3]
CCc1cc(Cc2cc(CC)c(NC(=O)C(=O)Cc3ccccn3)c(CC)c2Cl)c(Cl)c(CC)c1NC(=O)C(=O)Cc1ccccn1,> 100 µM,> 100 µM,> 100 µM,> 100 µM,46.1 µM,> 100 µM,> 100 µM,> 100 µM,,,,,,,,,,,,
CC(=O)/C(=C\c1cccc([N+](=O)[O-])c1)C(=O)Nc1ccccc1C,,> 100 µM,> 100 µM,> 100 µM,> 100 µM,> 100 µM,> 100 µM,> 100 µM,,,,,,,,,,,,
COc1cc2c3c(n(C)c(=O)c2cc1OC)-c1cc2c(cc1/C3=C\CCN)OCO2,27.7 µM,2.11 µM,,3.7 µM,22.8 µM,> 62.8 µM,2.42 µM,3.02 µM,11.4 µM,1.36 µM,4.78 µM,0.426 µM,0.255 µM,0.16 µM,3.88 µM,0.517 µM,0.112 µM,0.538 µM,9.56 µM,
O=C1c2cc3c(cc2-c2c1c1ccc(F)cc1c(=O)n2CCCNCCO)OCO3,0.491 µM,1.06 µM,,1.23 µM,0.102 µM,0.566 µM,0.192 µM,1.44 µM,0.137 µM,0.255 µM,1.06 µM,0.0646 µM,0.242 µM,0.0225 µM,0.0525 µM,0.0411 µM,0.0628 µM,0.0674 µM,0.955 µM,
Cc1ccc(S(=O)(=O)Nc2ccccc2C(=O)c2ccc(C)c(C)c2)cc1,> 100 µM,> 100 µM,,> 100 µM,> 100 µM,> 100 µM,> 100 µM,> 100 µM,,,> 100 µM,,,,,,,,> 100 µM,
Cc1cc(-c2ccc3nc(C4CCOCC4)n(CCOC(F)(F)F)c3c2)cn(C)c1=O,3.03 µM,11.4 µM,13.4 µM,> 56.4 µM,,1.25 µM,8.47 µM,,,,,0.724 µM,0.552 µM,1.02 µM,,,,0.21 µM,> 47.5 µM,0.597 µM
COc1cc(/C=C2\CN(S(=O)(=O)c3ccccc3)C/C(=C\c3cc(CN4CCCC4)c(O)c(OC)c3)C2=O)cc(CN2CCCC2)c1O,,,> 100 µM,3.86 µM,,,,5.21 µM,,,,,1.91 µM,,,,1.83 µM,,,0.458 µM
CCOC(=O)C(=C=C=C(c1ccccc1)c1ccccc1)C(=O)OCC,78.9 µM,46.1 µM,,35.5 µM,33.2 µM,50.3 µM,37.6 µM,,,,,,,,,,,,,
O=S1(=O)OCCOS(=O)(=O)C1Br,> 100 µM,> 100 µM,> 100 µM,,,> 100 µM,> 100 µM,> 100 µM,,,,,,,,,,,,
C/C(=N\NC(=S)NC(CCC(=O)O)C(=O)O)c1ccccn1 (configuration not stated),> 100 µM,> 100 µM,> 100 µM,> 100 µM,> 100 µM,> 100 µM,> 100 µM,,,,,,,,,,,,,
CC(C)=Cc1cc(C(=O)Nc2ccc(Cl)c(Cl)c2)nc(N)n1,> 100 µM,> 100 µM,,> 100 µM,> 100 µM,,> 100 µM,> 100 µM,,,,,,,,,,,,
CCOC(=O)NC(=O)c1cn(CCCO)c(=O)[nH]c1=O,> 100 µM,> 100 µM,,> 100 µM,> 100 µM,> 100 µM,> 100 µM,> 100 µM,,,,,,,,,,,,
COc1ccc([C@H]2[C@@H](F)C(=O)N2c2cc(OC)c(OC)c(OC)c2)cc1F,8.08 µM,> 100 µM,> 100 µM,> 100 µM,> 100 µM,> 100 µM,> 100 µM,,0.847 µM,0.355 µM,> 100 µM,0.0596 µM,0.423 µM,0.236 µM,3.45 µM,22.2 µM,,,,0.0408 µM
Brc1ccccc1C1SCc2nc3ccccc3n21 (configuration not stated),,43.4 µM,45.1 µM,68 µM,29.7 µM,56.7 µM,31.6 µM,61.2 µM,,,,,,,,,,,,
O=c1cc(-c2ccccc2)oc2cc(OCCCOc3ccc4c(=O)cc(-c5ccccc5)oc4c3)ccc12,,> 100 µM,> 100 µM,> 100 µM,> 100 µM,> 100 µM,> 100 µM,> 100 µM,,,,,,,,,,,,
CC(=O)OC1COC(n2ccc3cc(Br)c([N+](=O)[O-])cc32)C(OC(C)=O)C1OC(C)=O (configuration not stated),78.9 µM,> 100 µM,> 100 µM,,56 µM,> 100 µM,43.9 µM,> 100 µM,,,,,,,,,,,,
Cn1c2ccccc2c2cc(-c3ccccc3)c3c(c21)C(=O)c1ccccc1C3=O,> 100 µM,75.8 µM,31.4 µM,,,> 100 µM,84 µM,> 100 µM,,,,,,,,,,,,
CN(C)c1ccc(/C=C(\NC(=O)c2ccccc2)c2nc3ncncc3[nH]2)cc1,,> 100 µM,> 100 µM,> 100 µM,> 100 µM,> 100 µM,,> 100 µM,,,,,,,,,,,,
OCCCCCNCc1cc2cc3c(cc2c2cc(OCc4ccccc4)ccc12)OCO3,14.2 µM,2.97 µM,,,3.01 µM,7.94 µM,3.41 µM,3.74 µM,3.57 µM,1.3 µM,2.56 µM,1.62 µM,,1.65 µM,3.02 µM,1.85 µM,1.77 µM,1.66 µM,3.02 µM,
Clc1ccc(C(c2ccc(Cl)cc2)c2ccccn2)cc1,,42.5 µM,49.8 µM,29.5 µM,30.9 µM,86.5 µM,31.9 µM,56.8 µM,,,,,,,,,,,,
